Columns and labels:
[1] = system: major crops (wheat, corn, rice, soybean, cotton, oilseed rape, millet, sorghum); test: Experiment on weeding effect in post-emergence stage (crops); format: in vivo; settings: 600 g/ha active ingredient plus water 450 kg/ha, 3 weeks after application; for corn plant damage level (growth control rate): crop corn; for rice plant damage level (growth control rate): crop rice; for soybean plant damage level (growth control rate): crop soybean
Procedure: (§1) The above growth control rates are fresh weight control rates.
(§2) (1) Experiment on weeding effect in post-emergence stage: monocotyledonous and dicotyledonous weed seeds and major crop seeds (wheat, corn, rice, soybean, cotton, oilseed rape, millet, sorghum) were placed in plastic pots filled with soil, then covered with 0.5-2 cm of soil, allowed to grow in a good greenhouse environment. After 2-3 weeks of sowing, the test plants were treated. The tested compounds of the present invention were respectively dissolved in acetone, then added with Tween 80, diluted with a certain amount of water to obtain a solution with a certain concentration, and sprayed with a spray tower onto the plants.

[2] = system: monocotyledonous and dicotyledonous weeds; test: Experiment on weeding effect in post-emergence stage (weeds); format: in vivo; settings: 600 g/ha active ingredient plus water 450 kg/ha, 3 weeks after application, fresh weight control rate; for Amaranthus retroflexus activity level (growth control rate): fomesafen-resistant Amaranthus retroflexus
Excerpt: The activity level criteria for plant damage (i.e., growth control rate) are as follows: • Level 5: growth control rate is above 85%; • Level 4: growth control rate is greater than or equal to 60% and less than 85%; • Level 3: growth control rate is greater than or equal to 40% and less than 60%; • Level 2: growth control rate is greater than or equal to 20% and less than 40%; • Level 1: growth control rate is greater than or equal to […]; • Level 0: growth control rate is less than 5%.
as §1
as §2, with “plants. After the application, the plants were cultured for 3 weeks in the greenhouse, and then the experimental results of the weeding were listed in Table 2.” for “plants.”

SMILES	corn plant damage level (growth control rate) [1]	rice plant damage level (growth control rate) [1]	soybean plant damage level (growth control rate) [1]	Amaranthus retroflexus activity level (growth control rate) [2]	Digitaria sanguinalis activity level (growth control rate) [2]	Echinochloa crus-galli activity level (growth control rate) [2]	Setaria viridis activity level (growth control rate) [2]
CC(C)N1C(=O)c2ccccc2NS1(=O)=O [G, reference compound]	0 (Level 0: growth control rate is less than 5%)	1 (Level 1: growth control rate is greater than or equal to 500 and less than 200%)	1 (Level 1: growth control rate is greater than or equal to 500 and less than 200%)	1 (Level 1: growth control rate is greater than or equal to 500 and less than 200%)	0 (Level 0: growth control rate is less than 5%)	0 (Level 0: growth control rate is less than 5%)	1 (Level 1: growth control rate is greater than or equal to 500 and less than 200%)
CC(C)OC(=O)OC(C)N1c2ccc(F)cc2C(=O)N(C(C)C)S1(=O)=O (racemic) [Compound 193]	0 (Level 0: growth control rate is less than 5%)	0 (Level 0: growth control rate is less than 5%)	0 (Level 0: growth control rate is less than 5%)	4 (Level 4: growth control rate is greater than or equal to 60% and less than 85%)			
CCOC(=O)OC(C)N1c2c(F)cc(F)cc2C(=O)N(C(C)C)S1(=O)=O (centres unmarked) [Compound 151]	1 (Level 1: growth control rate is greater than or equal to 500 and less than 200%)	1 (Level 1: growth control rate is greater than or equal to 500 and less than 200%)	1 (Level 1: growth control rate is greater than or equal to 500 and less than 200%)	5 (Level 5: growth control rate is above 85%)	5 (Level 5: growth control rate is above 85%)	5 (Level 5: growth control rate is above 85%)	5 (Level 5: growth control rate is above 85%)
CC(C)N1C(=O)c2cc(F)cc(F)c2N(C(=O)C2CC2)S1(=O)=O [Compound 217]	1 (Level 1: growth control rate is greater than or equal to 500 and less than 200%)			5 (Level 5: growth control rate is above 85%)	5 (Level 5: growth control rate is above 85%)	5 (Level 5: growth control rate is above 85%)	5 (Level 5: growth control rate is above 85%)
CC(C)N1C(=O)c2cc(F)ccc2N(C(=O)C2CC2)S1(=O)=O [Compound 184]	1 (Level 1: growth control rate is greater than or equal to 500 and less than 200%)			5 (Level 5: growth control rate is above 85%)	3 (Level 3: growth control rate is greater than or equal to 40% and less than 60%)		3 (Level 3: growth control rate is greater than or equal to 40% and less than 60%)
CC(=O)N1c2c(Br)cc(F)cc2C(=O)N(C(C)C)S1(=O)=O [Compound 154]	0 (Level 0: growth control rate is less than 5%)	0 (Level 0: growth control rate is less than 5%)	1 (Level 1: growth control rate is greater than or equal to 500 and less than 200%)	5 (Level 5: growth control rate is above 85%)	5 (Level 5: growth control rate is above 85%)	5 (Level 5: growth control rate is above 85%)	5 (Level 5: growth control rate is above 85%)
CC(C)OC(=O)OC(C)N1c2c(F)cc(F)cc2C(=O)N(C(C)C)S1(=O)=O (racemic) [Compound 226]	1 (Level 1: growth control rate is greater than or equal to 500 and less than 200%)	0 (Level 0: growth control rate is less than 5%)		5 (Level 5: growth control rate is above 85%)			
CCS(=O)(=O)N1c2ccc(F)cc2C(=O)N(C(C)C)S1(=O)=O [Compound 195]	0 (Level 0: growth control rate is less than 5%)	0 (Level 0: growth control rate is less than 5%)	0 (Level 0: growth control rate is less than 5%)	3 (Level 3: growth control rate is greater than or equal to 40% and less than 60%)		3 (Level 3: growth control rate is greater than or equal to 40% and less than 60%)	
COCN1c2ccc(F)cc2C(=O)N(C(C)C)S1(=O)=O [Compound 56]	0 (Level 0: growth control rate is less than 5%)	0 (Level 0: growth control rate is less than 5%)	0 (Level 0: growth control rate is less than 5%)	3 (Level 3: growth control rate is greater than or equal to 40% and less than 60%)			
COc1ccc(CN2c3ccc(F)cc3C(=O)N(C(C)C)S2(=O)=O)cc1 [Compound 197]	0 (Level 0: growth control rate is less than 5%)	0 (Level 0: growth control rate is less than 5%)	0 (Level 0: growth control rate is less than 5%)	3 (Level 3: growth control rate is greater than or equal to 40% and less than 60%)			
CCC(C)N1C(=O)c2cc(F)ccc2NS1(=O)=O (centres unmarked) [Compound 161]	0 (Level 0: growth control rate is less than 5%)	1 (Level 1: growth control rate is greater than or equal to 500 and less than 200%)	0 (Level 0: growth control rate is less than 5%)				3 (Level 3: growth control rate is greater than or equal to 40% and less than 60%)
CCCS(=O)(=O)N1c2ccc(F)cc2C(=O)N(C(C)C)S1(=O)=O [Compound 196]	0 (Level 0: growth control rate is less than 5%)		0 (Level 0: growth control rate is less than 5%)	5 (Level 5: growth control rate is above 85%)	3 (Level 3: growth control rate is greater than or equal to 40% and less than 60%)	5 (Level 5: growth control rate is above 85%)	5 (Level 5: growth control rate is above 85%)
C=CC(=O)N1c2c(F)cc(F)cc2C(=O)N(C(C)C)S1(=O)=O [Compound 216]	0 (Level 0: growth control rate is less than 5%)	0 (Level 0: growth control rate is less than 5%)		4 (Level 4: growth control rate is greater than or equal to 60% and less than 85%)	3 (Level 3: growth control rate is greater than or equal to 40% and less than 60%)	3 (Level 3: growth control rate is greater than or equal to 40% and less than 60%)	4 (Level 4: growth control rate is greater than or equal to 60% and less than 85%)
CCN1C(=O)c2cc(F)ccc2NS1(=O)=O [Compound 157]	0 (Level 0: growth control rate is less than 5%)	0 (Level 0: growth control rate is less than 5%)	0 (Level 0: growth control rate is less than 5%)	3 (Level 3: growth control rate is greater than or equal to 40% and less than 60%)			
CC(C)N1C(=O)c2cc(Cl)ccc2NS1(=O)=O [A, reference compound]	0 (Level 0: growth control rate is less than 5%)	0 (Level 0: growth control rate is less than 5%)	0 (Level 0: growth control rate is less than 5%)	1 (Level 1: growth control rate is greater than or equal to 500 and less than 200%)	1 (Level 1: growth control rate is greater than or equal to 500 and less than 200%)	1 (Level 1: growth control rate is greater than or equal to 500 and less than 200%)	2 (Level 2: growth control rate is greater than or equal to 20% and less than 40%)

Reference: patent publication US12441695B2, “Substituted thiadiazinone dioxide and preparation method therefor, herbicidal composition, and application therefor” (Qingdao Kingagroot Chemical Compound Co., Ltd., priority 2019, dated 2025)
